Source: patent US6448279B1, “Isothiazolone/amine oxide wood preservatives” (Lonza Inc., priority 1999, dated 2002)

Columns and labels:
Experiment in all cases: agar dilution plate method, percent retardation of wood rot fungi
Format in all cases: cell-based
[1] = test system: P. placenta (brown rot fungi)
Description: (§1) The efficacy of aqueous 1,2-benzisothiazolone/amine oxide solutions containing the amine oxides in Table 1 against the wood rot fungi T. versicolor (white rot fungi), G. trabeum (brown rot fungi), P. placenta (brown rot fungi), and C. globosum (soft rot decay fungi) were determined using the agar dilution plate method well known in the art. The water in the solution was evaporated to form an agar/biocide mixture and then tested. Each solution was tested at dilutions ranging from 10 to 5000 ppm of benzisothiazolone. The weight ratio of amine oxide to 1,2-benzisothiazolone was either 20:1 or 10:1 in each solution. The percent retardation of the fungi was determined by the percentage change in the diameter of the fungi on the agar plate (i.e. Percent Retardation=((Diameter of Control)−(Diameter of Treated Fungi))/(Diameter of Control)* 100%).
(§2) The efficacy of aqueous 4,5-dichloro-2-n-octyl-3-isothiazolone/amine oxide solutions containing the amine oxides in Table 2 against the wood rot fungi T. versicolor (white not fungi), G. trabeum (brown rot fungi), P. placenta (brown rot fungi), and C. globosum (soft rot decay fungi) were determined as described in Example 6.

[2] = test system: G. trabeum (brown rot fungi)
Description: as §1, §2

[3] = test system: T. versicolor (white rot fungi)
Description: as §1, §2

[4] = test system: C. globosum (soft rot decay fungi)
Description: as §1, §2

[5] = no amine oxide, 4,5-dichloro-2-n-octyl-isothiazolone 0.5 ppm
[6] = no amine oxide, 4,5-dichloro-2-n-octyl-isothiazolone 5 ppm
[7] = no amine oxide, 4,5-dichloro-2-n-octyl-isothiazolone 50 ppm
[8] = no amine oxide, 4,5-dichloro-2-n-octyl-isothiazolone 100 ppm
[9] = no amine oxide, 4,5-dichloro-2-n-octyl-isothiazolone 250 ppm
[10] = no amine oxide, 4,5-dichloro-2-n-octyl-isothiazolone 500 ppm
[11] = no amine oxide, 4,5-dichloro-2-n-octyl-isothiazolone 750 ppm

## CCCCCCCCn1sc(Cl)c(Cl)c1=O [4,5-dichloro-2-n-octyl-isothiazolone, 4,5-dichloro-2-n-octyl-3-isothiazolone]
[1]; [5]
  Percent Retardation P. placenta: 42%
[1]; [6]
  Percent Retardation P. placenta: 83%
[1]; [7]
  Percent Retardation P. placenta: 100%
[1]; [8]
  Percent Retardation P. placenta: 100%
[1]; [9]
  Percent Retardation P. placenta: 100%
[1]; [10]
  Percent Retardation P. placenta: 100%
[2]; [5]
  Percent Retardation G. trabeum: 11%
[2]; [6]
  Percent Retardation G. trabeum: 63%
[2]; [7]
  Percent Retardation G. trabeum: 83%
[2]; [8]
  Percent Retardation G. trabeum: 85%
[2]; [9]
  Percent Retardation G. trabeum: 87%
[2]; [10]
  Percent Retardation G. trabeum: 88%
[2]; [11]
  Percent Retardation G. trabeum: 100%
[3]; [5]
  Percent Retardation T Versicolor: 12%
[3]; [6]
  Percent Retardation T Versicolor: 51%
[3]; [7]
  Percent Retardation T Versicolor: 82%
[3]; [8]
  Percent Retardation T Versicolor: 87%
[3]; [9]
  Percent Retardation T Versicolor: 87%
[3]; [10]
  Percent Retardation T Versicolor: 88%
[3]; [11]
  Percent Retardation T Versicolor: 100%
[4]; [5]
  Percent Retardation C. globosum: 63%
[4]; [6]
  Percent Retardation C. globosum: 60%
[4]; [7]
  Percent Retardation C. globosum: 67%
[4]; [8]
  Percent Retardation C. globosum: 78%
[4]; [9]
  Percent Retardation C. globosum: 89%
[4]; [10]
  Percent Retardation C. globosum: 100%
[4]; [11]
  Percent Retardation C. globosum: 100%
